Assay results: PubChem BioAssay AID248 (DTP/NCI, 2004)
Inconclusive results and toxic doses are left out. No stated cut-off is given here; in the data, active means T/C of 150% or more; inactive means T/C below 125%.

Test system: L1210 leukemia ip in BDF1 mice, survival T/C
Test: NCI In Vivo Anticancer Drug Screen. Data for tumor model L1210 Leukemia (intraperitoneal) in B6D2F1 (BDF1) mice
Conditions: endpoint: mean survival time, higher = longer survival
Procedure, shortened: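 Each compound was tested against a transplantable tumor grown in mice. The endpoint was survival, with treated animals benchmarked against vehicle controls as a simple ratio.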

[1] = dose: 25.0 mg/kg/injection, schedule: Q04DX003 (ip), vehicle: saline with Tween-80
[2] = dose: 100.0 mg/kg/injection, schedule: Q01DX001 (ip), vehicle: carboxymethylcellulose (CMC)
[3] = dose: 200.0 mg/kg/injection, schedule: Q01DX001 (ip), vehicle: carboxymethylcellulose (CMC)
[4] = dose: 400.0 mg/kg/injection, schedule: Q01DX001 (ip), vehicle: carboxymethylcellulose (CMC)
[5] = dose: 100.0 mg/kg/injection, schedule: Q01DX001 (ip), vehicle: saline
[6] = dose: 200.0 mg/kg/injection, schedule: Q01DX001 (ip), vehicle: saline
[7] = dose: 400.0 mg/kg/injection, schedule: Q01DX001 (ip), vehicle: saline
[8] = dose: 100.0 mg/kg/injection, schedule: Q04DX003 (ip), vehicle: saline with Tween-80
[9] = dose: 200.0 mg/kg/injection, schedule: Q04DX003 (ip), vehicle: saline with Tween-80
[10] = dose: 400.0 mg/kg/injection, schedule: Q04DX003 (ip), vehicle: saline with Tween-80
[11] = dose: 100.0 mg/kg/injection, schedule: Q04DX003 (ip), vehicle: saline
[12] = dose: 200.0 mg/kg/injection, schedule: Q04DX003 (ip), vehicle: saline
[13] = dose: 50.0 mg/kg/injection, schedule: Q01DX009 (ip), vehicle: saline
[14] = dose: 100.0 mg/kg/injection, schedule: Q01DX009 (ip), vehicle: saline
[15] = dose: 200.0 mg/kg/injection, schedule: Q01DX009 (ip), vehicle: saline
[16] = dose: 100.0 mg/kg/injection, schedule: Q04DX002 (ip), vehicle: Klucel (hydroxypropylcellulose) (HPC)
[17] = dose: 200.0 mg/kg/injection, schedule: Q04DX002 (ip), vehicle: Klucel (hydroxypropylcellulose) (HPC)
[18] = dose: 400.0 mg/kg/injection, schedule: Q04DX002 (ip), vehicle: Klucel (hydroxypropylcellulose) (HPC)

Measured: T/C

Cc1cc(C)[c]([Hg][Cl])c(C)c1
inactive: dose: 6.0 mg/kg/injection, schedule: Q01DX009 (ip), vehicle: saline with Tween-80 100 % of control | dose: 6.0 mg/kg/injection, schedule: Q04DX003 (ip), vehicle: saline with Tween-80 94 % of control | dose: 12.0 mg/kg/injection, schedule: Q01DX009 (ip), vehicle: saline with Tween-80 87 % of control | dose: 12.0 mg/kg/injection, schedule: Q04DX003 (ip), vehicle: saline with Tween-80 103 % of control | dose: 25.0 mg/kg/injection, schedule: Q01DX009 (ip), vehicle: saline with Tween-80 90 % of control | [1] 92 % of control

CC(=O)OCCCC[N+](=O)[O-]
inactive: [2] 98 % of control | [3] 98 % of control | [4] 98 % of control

CCOC(=O)C(Cc1ccc(O)c([N+](=O)[O-])c1)N1C(=O)c2ccccc2C1=O (centres undefined)
inactive: [5] 107 % of control | [6] 92 % of control | [7] 95 % of control

O=C(Nc1ccc(-c2nc3nc[nH]c(=O)c3[nH]2)cc1)c1cccc(S(=O)(=O)F)c1
inactive: dose: 100.0 mg/kg/injection, schedule: Q01DX001 (ip), vehicle: saline with Tween-80 96 % of control | dose: 200.0 mg/kg/injection, schedule: Q01DX001 (ip), vehicle: saline with Tween-80 96 % of control | dose: 400.0 mg/kg/injection, schedule: Q01DX001 (ip), vehicle: saline with Tween-80 92 % of control

Nc1ccccc1CSc1nc2nc[nH]c2c(=O)[nH]1
inactive: dose: 5.0 mg/kg/injection, schedule: Q01DX009 (ip), vehicle: Klucel (hydroxypropylcellulose) (HPC) 99 % of control | dose: 10.0 mg/kg/injection, schedule: Q01DX009 (ip), vehicle: Klucel (hydroxypropylcellulose) (HPC) 97 % of control | dose: 20.0 mg/kg/injection, schedule: Q01DX009 (ip), vehicle: Klucel (hydroxypropylcellulose) (HPC) 103 % of control

COc1ccc(C=NC2C(OC(C)=O)OC(COS(=O)(=O)c3ccc(C)cc3)C(OC(C)=O)C2OC(C)=O)cc1 (centres undefined)
inactive: [8] 101 % of control | [9] 101 % of control | [10] 93 % of control

CC(C)(C)C1CC(Cl)C(=O)C(Cl)C1 (centres undefined)
inactive: [5] 104 % of control | [11] 96 % of control | [6] 94 % of control | [12] 112 % of control | [7] 88 % of control | dose: 400.0 mg/kg/injection, schedule: Q04DX003 (ip), vehicle: saline 94 % of control

c1ccc(-n2nnnc2-c2nnnn2-c2ccccc2)cc1
inactive: [5] 98 % of control | [6] 98 % of control | [7] 101 % of control

Nc1ncnc2c1ncn2CCCCl
inactive: [13] 100 % of control | [14] 100 % of control | [11] 90 % of control | [15] 92 % of control | [12] 106 % of control

Cc1ccc(C(C)C)c(OCC2=NCCN2C)c1
inactive: [13] 100 % of control | [14] 98 % of control | [15] 115 % of control

CCOC(=O)c1cnc(SC)nc1NCc1ccccc1C
inactive: [8] 94 % of control | [9] 94 % of control | [10] 92 % of control

Cc1ccc(S(=O)(=O)N=S(C)C)cc1
inactive: dose: 50.0 mg/kg/injection, schedule: Q01DX001 (ip), vehicle: carboxymethylcellulose (CMC) 104 % of control | [2] 104 % of control | [3] 98 % of control | [4] 93 % of control | dose: 800.0 mg/kg/injection, schedule: Q01DX001 (ip), vehicle: carboxymethylcellulose (CMC) 105 % of control | dose: 1200.0 mg/kg/injection, schedule: Q01DX001 (ip), vehicle: carboxymethylcellulose (CMC) 103 % of control | dose: 1600.0 mg/kg/injection, schedule: Q01DX001 (ip), vehicle: carboxymethylcellulose (CMC) 109 % of control

CCCCCC(O)C(CO)CCCC (centres undefined)
inactive: dose: 100.0 mg/kg/injection, schedule: Q01DX009 (ip), vehicle: saline with Tween-80 100 % of control | dose: 200.0 mg/kg/injection, schedule: Q01DX009 (ip), vehicle: saline with Tween-80 95 % of control | dose: 400.0 mg/kg/injection, schedule: Q01DX009 (ip), vehicle: saline with Tween-80 94 % of control

O=[N+]([O-])c1ccc(/C=N\N=C\c2ccc([N+](=O)[O-])cc2)cc1
inactive: dose: 100.0 mg/kg/injection, schedule: Q01DX001 (ip), vehicle: other 104 % of control | dose: 200.0 mg/kg/injection, schedule: Q01DX001 (ip), vehicle: other 104 % of control | dose: 400.0 mg/kg/injection, schedule: Q01DX001 (ip), vehicle: other 104 % of control

CCCc1nc2ccccc2c(=O)n1/N=C/c1ccsc1
inactive: dose: 100.0 mg/kg/injection, schedule: Q04DX003 (ip), vehicle: saline sonified 101 % of control | dose: 200.0 mg/kg/injection, schedule: Q04DX003 (ip), vehicle: saline sonified 94 % of control | dose: 400.0 mg/kg/injection, schedule: Q04DX003 (ip), vehicle: saline sonified 94 % of control

CCC(CC)C[N+](C)(C)C
inactive: dose: 75.0 mg/kg/injection, schedule: Q01DX001 (ip), vehicle: saline 95 % of control | dose: 150.0 mg/kg/injection, schedule: Q01DX001 (ip), vehicle: saline 104 % of control

O=C(O)COc1ccc(Cl)cc1I
inactive: [16] 120 % of control | [17] 97 % of control

CC(C)OC(=O)COc1cc(F)c(Cl)cc1Cl
inactive: [16] 102 % of control | [17] 95 % of control | [18] 102 % of control

COC(=O)C(=O)CC(=O)c1ccccc1
inactive: [16] 116 % of control | [17] 106 % of control | [18] 118 % of control

CCOc1ccc(NC(=O)Oc2ccc(SC)c(C)c2)cc1
inactive: dose: 100.0 mg/kg/injection, schedule: Q01DX009 (ip), vehicle: Klucel (hydroxypropylcellulose) (HPC) 91 % of control | dose: 200.0 mg/kg/injection, schedule: Q01DX009 (ip), vehicle: Klucel (hydroxypropylcellulose) (HPC) 91 % of control | dose: 400.0 mg/kg/injection, schedule: Q01DX009 (ip), vehicle: Klucel (hydroxypropylcellulose) (HPC) 96 % of control

Nc1ncnc2nc(-c3ccc(Cl)cc3Cl)[nH]c12
inactive: dose: 6.25 mg/kg/injection, schedule: Q01DX001 (ip), vehicle: saline with Tween-80 101 % of control | dose: 12.5 mg/kg/injection, schedule: Q01DX001 (ip), vehicle: saline with Tween-80 106 % of control | dose: 25.0 mg/kg/injection, schedule: Q01DX001 (ip), vehicle: saline with Tween-80 98 % of control

CCCCCCOC(=O)N1CCN(c2ccccc2)CC1
inactive: [13] 106 % of control | [14] 92 % of control | [15] 90 % of control

Cc1cc([N+](=O)[O-])ccc1NC(=O)OCc1ccccc1
inactive: [16] 99 % of control | [17] 101 % of control | [18] 89 % of control

c1ccc2[nH]c(-c3cscn3)nc2c1
inactive: dose: 75.0 mg/kg/injection, schedule: Q04DX003 (ip), vehicle: saline 103 % of control | dose: 150.0 mg/kg/injection, schedule: Q04DX003 (ip), vehicle: saline 103 % of control | dose: 300.0 mg/kg/injection, schedule: Q04DX003 (ip), vehicle: saline 106 % of control

O=C(Nc1ccccc1)Nc1ccccn1
inactive: dose: 12.5 mg/kg/injection, schedule: Q04DX003 (ip), vehicle: saline with Tween-80 95 % of control | [1] 95 % of control
